# Reference: ChEMBL document CHEMBL3751680 (Bioorg Med Chem, 2016)
# Activity calls are given as the source filed them. No cut-off for these calls is given here.
# Experiments:
# [1] = Binding affinity to synthetic ceramic hydroxyapatite type 1 assessed as reduction in bound compound level at 50 uM after 1 hr by NMR spectroscopic analysis relative to control; design: scale not given: the % may be the effect or the level left
# [2] = Binding affinity to synthetic ceramic hydroxyapatite type 1 assessed as reduction in bound compound level at 50 uM after 1 hr by NMR spectroscopic analysis relative to alendronate; design: scale not given: the % may be the effect or the level left
# Canis lupus familiaris [3] = species on record: Canis lupus familiaris; assay: Binding affinity to hound bone powder assessed as reduction in bound compound level at 50 uM after 16 hrs by NMR spectroscopic analysis relative to alendronate; design: scale not given: the % may be the effect or the level left
# Canis lupus familiaris [4] = species on record: Canis lupus familiaris; assay: Binding affinity to hound bone powder assessed as reduction in bound compound level at 50 uM after 1 hr by NMR spectroscopic analysis relative to alendronate; design: scale not given: the % may be the effect or the level left
# Estrogen receptor beta = Estrogen receptor beta (Homo sapiens, UniProt Q92731); assay: Binding affinity to ERbeta (unknown origin)
# Sequence of Estrogen receptor beta (Q92731 whole entry): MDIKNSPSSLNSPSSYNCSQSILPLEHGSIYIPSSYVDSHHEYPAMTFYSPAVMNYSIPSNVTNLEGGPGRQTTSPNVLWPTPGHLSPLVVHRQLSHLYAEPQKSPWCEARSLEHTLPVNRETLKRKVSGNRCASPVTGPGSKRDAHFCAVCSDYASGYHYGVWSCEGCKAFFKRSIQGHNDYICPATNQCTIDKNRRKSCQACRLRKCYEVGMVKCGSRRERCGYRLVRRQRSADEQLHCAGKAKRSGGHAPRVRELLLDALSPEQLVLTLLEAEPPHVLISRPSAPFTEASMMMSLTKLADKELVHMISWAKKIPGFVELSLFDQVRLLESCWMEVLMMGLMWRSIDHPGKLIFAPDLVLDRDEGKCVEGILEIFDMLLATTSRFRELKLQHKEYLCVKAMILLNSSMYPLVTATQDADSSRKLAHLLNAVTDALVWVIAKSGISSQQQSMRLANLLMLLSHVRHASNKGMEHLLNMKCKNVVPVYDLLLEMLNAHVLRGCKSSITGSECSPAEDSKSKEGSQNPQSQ
# Canis lupus familiaris [5] = species on record: Canis lupus familiaris; assay: Binding affinity to hound bone powder assessed as reduction in bound compound level at 50 uM after 1 hr by NMR spectroscopic analysis relative to control; design: scale not given: the % may be the effect or the level left
# [6] = Binding affinity to synthetic ceramic hydroxyapatite type 1 assessed as reduction in bound compound level at 50 uM after 16 hrs by NMR spectroscopic analysis relative to control; design: scale not given: the % may be the effect or the level left
# Canis lupus familiaris [7] = species on record: Canis lupus familiaris; assay: […] hound bone beams assessed as energy to fracture at 2 uM by 4 point bending analysis relative to control
# [8] = Binding affinity to synthetic ceramic hydroxyapatite type 1 assessed as reduction in bound compound level at 50 uM after 16 hrs by NMR spectroscopic analysis relative to alendronate; design: scale not given: the % may be the effect or the level left
# Canis lupus familiaris [9] = species on record: Canis lupus familiaris; assay: Binding affinity to hound bone powder assessed as reduction in bound compound level at 50 uM after 16 hrs by NMR spectroscopic analysis relative to control; design: scale not given: the % may be the effect or the level left
# Estrogen receptor = target: T1, Estrogen receptor (Homo sapiens, UniProt P03372); assay: Binding affinity to ERalpha (unknown origin)
# T1 sequence (P03372 whole entry): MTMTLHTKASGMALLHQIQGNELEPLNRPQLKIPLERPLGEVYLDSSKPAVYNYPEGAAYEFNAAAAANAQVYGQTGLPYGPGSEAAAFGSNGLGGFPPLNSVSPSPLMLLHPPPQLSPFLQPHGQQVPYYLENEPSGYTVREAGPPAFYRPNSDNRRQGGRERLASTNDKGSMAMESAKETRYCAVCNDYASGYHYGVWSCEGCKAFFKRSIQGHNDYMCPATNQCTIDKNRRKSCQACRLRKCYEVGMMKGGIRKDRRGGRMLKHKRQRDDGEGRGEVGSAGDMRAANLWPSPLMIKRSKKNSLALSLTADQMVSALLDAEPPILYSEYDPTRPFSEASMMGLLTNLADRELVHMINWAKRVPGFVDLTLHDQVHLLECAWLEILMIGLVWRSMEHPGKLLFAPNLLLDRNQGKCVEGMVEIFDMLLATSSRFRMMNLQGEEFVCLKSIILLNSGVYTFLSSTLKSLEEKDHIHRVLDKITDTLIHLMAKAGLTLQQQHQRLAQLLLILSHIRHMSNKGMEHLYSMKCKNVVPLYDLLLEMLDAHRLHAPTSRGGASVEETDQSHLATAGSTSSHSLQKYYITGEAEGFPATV
# [10] = target: Collagen alpha-1(I) chain (Canis lupus familiaris) (UniProt Q9XSJ7); assay: Binding affinity to hound collagen 1a1 (unknown origin) at 50 uM after 1 8 hrs by 1H NMR spectroscopic analysis
# Sequence of Collagen alpha-1(I) chain (Canis lupus familiaris) (Q9XSJ7 whole entry): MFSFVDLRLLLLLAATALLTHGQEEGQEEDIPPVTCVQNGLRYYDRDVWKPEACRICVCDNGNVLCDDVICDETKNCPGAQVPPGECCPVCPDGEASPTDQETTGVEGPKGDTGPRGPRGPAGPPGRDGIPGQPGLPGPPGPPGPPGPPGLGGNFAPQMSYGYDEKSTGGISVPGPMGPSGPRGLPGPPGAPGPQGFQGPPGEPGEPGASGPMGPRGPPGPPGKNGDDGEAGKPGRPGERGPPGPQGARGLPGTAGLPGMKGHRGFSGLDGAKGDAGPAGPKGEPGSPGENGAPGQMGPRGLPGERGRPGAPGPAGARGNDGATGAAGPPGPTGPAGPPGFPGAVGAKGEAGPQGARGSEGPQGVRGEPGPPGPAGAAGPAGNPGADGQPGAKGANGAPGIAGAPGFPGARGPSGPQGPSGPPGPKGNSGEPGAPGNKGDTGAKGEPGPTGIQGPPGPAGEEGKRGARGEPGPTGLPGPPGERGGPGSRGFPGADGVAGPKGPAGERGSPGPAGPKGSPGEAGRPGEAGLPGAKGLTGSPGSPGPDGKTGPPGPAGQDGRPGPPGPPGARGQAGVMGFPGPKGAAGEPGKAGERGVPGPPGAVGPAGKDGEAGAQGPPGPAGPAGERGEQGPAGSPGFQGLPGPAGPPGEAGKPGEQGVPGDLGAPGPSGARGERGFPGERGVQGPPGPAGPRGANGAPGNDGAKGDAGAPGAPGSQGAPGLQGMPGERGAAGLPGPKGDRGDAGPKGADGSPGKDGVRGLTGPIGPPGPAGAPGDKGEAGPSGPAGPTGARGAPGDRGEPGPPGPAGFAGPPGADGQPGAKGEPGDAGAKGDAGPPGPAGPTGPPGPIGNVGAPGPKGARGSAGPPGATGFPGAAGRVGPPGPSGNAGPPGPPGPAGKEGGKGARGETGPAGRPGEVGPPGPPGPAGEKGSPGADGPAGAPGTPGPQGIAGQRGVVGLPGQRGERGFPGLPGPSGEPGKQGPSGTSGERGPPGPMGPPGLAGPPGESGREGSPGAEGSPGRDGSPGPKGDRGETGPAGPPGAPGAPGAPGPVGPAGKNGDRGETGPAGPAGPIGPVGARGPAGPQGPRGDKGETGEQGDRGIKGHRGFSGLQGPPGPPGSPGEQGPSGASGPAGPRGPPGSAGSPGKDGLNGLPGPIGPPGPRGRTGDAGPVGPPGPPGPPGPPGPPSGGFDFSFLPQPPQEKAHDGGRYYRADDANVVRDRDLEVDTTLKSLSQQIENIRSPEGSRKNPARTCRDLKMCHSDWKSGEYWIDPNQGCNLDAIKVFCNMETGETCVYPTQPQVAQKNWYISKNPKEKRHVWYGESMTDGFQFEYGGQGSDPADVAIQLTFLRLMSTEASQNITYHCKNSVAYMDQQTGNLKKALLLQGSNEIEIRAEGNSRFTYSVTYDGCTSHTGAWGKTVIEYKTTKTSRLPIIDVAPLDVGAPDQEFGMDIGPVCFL
# Canis lupus familiaris [11] = species on record: Canis lupus familiaris; assay: Binding affinity to hound bone powder at 50 uM after 1 to 8 hrs by 1H NMR spectroscopic analysis
# Canis lupus familiaris [12] = species on record: Canis lupus familiaris; assay: Binding affinity to hound bone powder assessed as change in vibration bands at 20 to 50 uM after 1 hr by FTIR analysis
Structure (SMILES),Activity [1],Activity [2],Activity (Canis lupus familiaris [3]),Activity (Canis lupus familiaris [4]),Ki (Estrogen receptor beta),Activity (Canis lupus familiaris [5]),Activity [6],Activity (Canis lupus familiaris [7]),Activity [8],Activity (Canis lupus familiaris [9]),Ki (Estrogen receptor),Activity [10],Activity (Canis lupus familiaris [11]),Activity (Canis lupus familiaris [12])
Oc1ccc(-c2cc3ccc(O)cc3s2)cc1 [RALOXIFENE CORE],22.3%,22.3%,48.6%,42.8%,2.3 nM,42.8%,11.7%,-75%,11.7%,46.4%,,,,
C[C@]12CC[C@@H]3c4ccc(O)cc4CC[C@H]3[C@@H]1CC[C@@H]2O,57.1%,57.1%,77.4%,5.3%,,5.3%,73%,,73.2%,73.9%,,,,
O=C(c1ccc(OCCN2CCCCC2)cc1)c1c(-c2ccccc2)sc2ccccc12,-422%,-422%,93.1%,-132%,> 10000 nM,-132%,-237%,,-238%,89%,> 10 µM,,,
O=C(c1ccc(O)cc1)c1c(-c2ccc(O)cc2)sc2cc(O)ccc12,13.3%,13.3%,35.6%,26.4%,,26.4%,15.1%,-36%,15.1%,34.1%,,Active,Active,
COc1ccc(Nc2nc(NCc3ccco3)nc(N/N=C(\C)c3ccc(NC(C)=O)cc3)n2)cc1,3.9%,3.9%,-0.5%,0.3%,,0.3%,4.1%,,4.1%,-0.5%,,,,
COc1ccc2c(C(=O)c3ccc(OCCN4CCCCC4)cc3)c(-c3ccc(O)cc3)sc2c1,-57.9%,-57.9%,77.4%,21%,,21%,-286%,25%,-287%,73.9%,,Active,Active,
O=C(c1ccc(OCCN2CCCCC2)cc1)c1c(-c2ccc(O)cc2)sc2cc(O)ccc12,-232%,-232%,104%,54.2%,,54.2%,-206%,16%,-207%,99%,,Active,Active,Active
NCCCC(O)(P(=O)(O)O)P(=O)(O)O,100%,,,,,41.1%,99.7%,,,95.6%,,,,
